According to ChEMBL document CHEMBL5291721, “A preclinical secondary pharmacology resource illuminates target-adverse drug reaction associations of marketed drugs” (Nat Commun, 2023):

Assays:
[1] = target: Cannabinoid receptor 1 (Homo sapiens, UniProt P21554)
[2] = target: Beta-2 adrenergic receptor (Homo sapiens, UniProt P07550)
[3] = target: T1, Progesterone receptor (Homo sapiens, UniProt P06401); assay type: functional
T1 sequence (P06401 whole entry): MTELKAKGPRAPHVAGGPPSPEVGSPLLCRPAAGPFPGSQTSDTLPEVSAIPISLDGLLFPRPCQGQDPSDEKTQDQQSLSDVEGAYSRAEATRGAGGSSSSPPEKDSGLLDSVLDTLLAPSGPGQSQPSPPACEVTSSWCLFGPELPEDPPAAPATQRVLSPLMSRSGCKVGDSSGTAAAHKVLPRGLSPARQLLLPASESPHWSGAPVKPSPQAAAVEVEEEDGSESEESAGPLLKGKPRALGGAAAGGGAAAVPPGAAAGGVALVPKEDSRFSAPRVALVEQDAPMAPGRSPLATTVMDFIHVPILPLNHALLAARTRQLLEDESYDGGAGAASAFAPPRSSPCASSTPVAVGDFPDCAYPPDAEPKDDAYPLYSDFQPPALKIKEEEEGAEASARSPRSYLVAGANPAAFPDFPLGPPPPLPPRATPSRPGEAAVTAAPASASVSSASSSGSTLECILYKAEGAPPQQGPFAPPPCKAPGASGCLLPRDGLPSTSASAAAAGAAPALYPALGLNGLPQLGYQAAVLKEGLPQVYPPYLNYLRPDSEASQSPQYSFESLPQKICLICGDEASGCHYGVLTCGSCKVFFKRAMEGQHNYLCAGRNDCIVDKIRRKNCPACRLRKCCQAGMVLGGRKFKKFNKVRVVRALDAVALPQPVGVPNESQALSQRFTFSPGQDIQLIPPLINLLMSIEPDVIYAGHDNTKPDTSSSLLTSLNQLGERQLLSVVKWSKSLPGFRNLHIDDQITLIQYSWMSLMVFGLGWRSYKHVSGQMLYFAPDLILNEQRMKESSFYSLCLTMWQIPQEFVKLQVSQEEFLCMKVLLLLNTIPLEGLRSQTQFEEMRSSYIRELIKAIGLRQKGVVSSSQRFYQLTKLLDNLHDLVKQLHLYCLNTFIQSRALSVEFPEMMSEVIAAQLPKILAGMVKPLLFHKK

[4] = target: T2, Alpha-2A adrenergic receptor (Homo sapiens, UniProt P08913)
T2 sequence (P08913 whole entry): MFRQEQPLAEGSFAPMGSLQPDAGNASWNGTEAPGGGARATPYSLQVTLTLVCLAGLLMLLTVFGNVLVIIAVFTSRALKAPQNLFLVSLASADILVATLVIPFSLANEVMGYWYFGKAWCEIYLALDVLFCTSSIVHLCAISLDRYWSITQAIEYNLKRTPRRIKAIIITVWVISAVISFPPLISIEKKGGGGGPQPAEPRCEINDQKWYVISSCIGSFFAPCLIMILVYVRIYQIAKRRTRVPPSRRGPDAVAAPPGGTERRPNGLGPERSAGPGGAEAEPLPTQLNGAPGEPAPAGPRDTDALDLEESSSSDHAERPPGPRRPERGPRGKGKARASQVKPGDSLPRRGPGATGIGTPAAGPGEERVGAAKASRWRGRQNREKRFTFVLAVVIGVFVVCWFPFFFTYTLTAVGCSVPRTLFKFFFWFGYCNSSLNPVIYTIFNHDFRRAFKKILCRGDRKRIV

[5] = target: 3',5'-cyclic-AMP phosphodiesterase 4A (Homo sapiens, UniProt P27815); assay type: functional
[6] = target: Acetylcholinesterase (Homo sapiens, UniProt P22303); assay type: functional
Acetylcholinesterase, sequence (P22303 whole entry): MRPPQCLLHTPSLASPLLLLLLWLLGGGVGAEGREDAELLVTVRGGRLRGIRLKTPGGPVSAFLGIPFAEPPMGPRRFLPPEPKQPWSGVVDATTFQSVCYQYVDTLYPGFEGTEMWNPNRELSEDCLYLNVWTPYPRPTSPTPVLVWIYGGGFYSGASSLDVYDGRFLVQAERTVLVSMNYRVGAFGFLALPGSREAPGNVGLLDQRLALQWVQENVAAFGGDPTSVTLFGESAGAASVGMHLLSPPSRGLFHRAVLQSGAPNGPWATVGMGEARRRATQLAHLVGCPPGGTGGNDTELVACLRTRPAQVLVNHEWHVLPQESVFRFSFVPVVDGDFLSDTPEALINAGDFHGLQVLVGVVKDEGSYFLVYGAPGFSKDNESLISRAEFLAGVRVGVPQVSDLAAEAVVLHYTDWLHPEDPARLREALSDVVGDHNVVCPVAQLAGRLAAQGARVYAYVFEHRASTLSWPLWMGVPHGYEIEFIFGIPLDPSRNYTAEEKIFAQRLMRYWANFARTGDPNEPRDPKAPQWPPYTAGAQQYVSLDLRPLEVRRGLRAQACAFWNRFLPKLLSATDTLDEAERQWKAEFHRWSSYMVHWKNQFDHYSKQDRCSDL

[7] = target: Mu-type opioid receptor (Homo sapiens, UniProt P35372)
Mu-type opioid receptor, sequence (P35372 whole entry): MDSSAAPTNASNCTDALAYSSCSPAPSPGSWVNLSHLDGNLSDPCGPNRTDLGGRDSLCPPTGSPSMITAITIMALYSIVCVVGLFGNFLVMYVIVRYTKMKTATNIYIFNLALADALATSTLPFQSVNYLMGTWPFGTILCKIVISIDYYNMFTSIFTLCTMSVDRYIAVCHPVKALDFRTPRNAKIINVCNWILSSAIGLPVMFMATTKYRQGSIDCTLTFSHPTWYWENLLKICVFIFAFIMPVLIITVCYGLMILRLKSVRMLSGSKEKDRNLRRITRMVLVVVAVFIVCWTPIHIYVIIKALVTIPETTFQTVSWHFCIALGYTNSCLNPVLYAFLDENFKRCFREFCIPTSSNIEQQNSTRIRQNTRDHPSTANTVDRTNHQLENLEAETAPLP

[8] = target: T3, Muscarinic acetylcholine receptor M1 (Homo sapiens, UniProt P11229); assay type: functional, cell-based
T3 sequence (P11229 whole entry): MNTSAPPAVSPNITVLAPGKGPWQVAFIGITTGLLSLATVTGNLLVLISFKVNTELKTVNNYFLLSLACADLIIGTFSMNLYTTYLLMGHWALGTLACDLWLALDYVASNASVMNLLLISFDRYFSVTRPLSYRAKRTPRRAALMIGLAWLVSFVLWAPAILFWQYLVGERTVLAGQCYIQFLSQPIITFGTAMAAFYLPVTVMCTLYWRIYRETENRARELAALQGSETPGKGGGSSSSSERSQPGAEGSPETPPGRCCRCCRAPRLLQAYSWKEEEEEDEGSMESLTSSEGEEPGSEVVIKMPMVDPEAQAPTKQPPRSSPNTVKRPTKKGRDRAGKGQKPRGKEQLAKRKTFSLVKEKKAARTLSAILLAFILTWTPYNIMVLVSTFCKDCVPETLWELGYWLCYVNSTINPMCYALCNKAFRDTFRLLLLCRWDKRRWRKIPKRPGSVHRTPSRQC

[9] = target: Sodium-dependent noradrenaline transporter (Homo sapiens, UniProt P23975)
Sodium-dependent noradrenaline transporter, sequence (P23975 whole entry): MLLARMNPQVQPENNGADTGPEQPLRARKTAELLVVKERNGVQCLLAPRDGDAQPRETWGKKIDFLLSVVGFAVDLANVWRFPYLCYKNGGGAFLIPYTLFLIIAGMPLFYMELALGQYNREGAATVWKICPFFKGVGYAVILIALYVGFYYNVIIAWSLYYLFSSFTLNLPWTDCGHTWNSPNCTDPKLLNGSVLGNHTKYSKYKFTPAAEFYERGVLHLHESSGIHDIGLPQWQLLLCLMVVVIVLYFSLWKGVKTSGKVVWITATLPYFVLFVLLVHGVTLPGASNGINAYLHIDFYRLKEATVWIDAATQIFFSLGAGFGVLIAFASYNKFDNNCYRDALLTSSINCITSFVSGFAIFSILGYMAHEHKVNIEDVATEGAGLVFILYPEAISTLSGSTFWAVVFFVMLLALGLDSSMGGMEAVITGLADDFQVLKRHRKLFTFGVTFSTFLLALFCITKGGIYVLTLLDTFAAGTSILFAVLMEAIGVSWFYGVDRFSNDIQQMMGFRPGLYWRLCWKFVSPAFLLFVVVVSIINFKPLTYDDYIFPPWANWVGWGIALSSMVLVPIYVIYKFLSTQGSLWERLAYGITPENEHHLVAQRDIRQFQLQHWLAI

[10] = target: D(1A) dopamine receptor (Homo sapiens, UniProt P21728)
D(1A) dopamine receptor, sequence (P21728 whole entry): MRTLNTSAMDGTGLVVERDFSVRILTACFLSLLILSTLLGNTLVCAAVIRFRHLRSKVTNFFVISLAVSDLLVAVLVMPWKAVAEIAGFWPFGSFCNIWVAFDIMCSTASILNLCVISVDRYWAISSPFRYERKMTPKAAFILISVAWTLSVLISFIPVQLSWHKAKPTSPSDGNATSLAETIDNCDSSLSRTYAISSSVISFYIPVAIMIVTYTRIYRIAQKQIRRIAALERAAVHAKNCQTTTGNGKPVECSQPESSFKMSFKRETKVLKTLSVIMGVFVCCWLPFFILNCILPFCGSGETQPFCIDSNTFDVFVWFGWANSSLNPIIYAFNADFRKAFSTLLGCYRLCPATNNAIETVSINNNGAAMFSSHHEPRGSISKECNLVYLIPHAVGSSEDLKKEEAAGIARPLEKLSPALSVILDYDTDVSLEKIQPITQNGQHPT

[11] = target: Sodium-dependent serotonin transporter (Homo sapiens, UniProt P31645)
[12] = target: D(3) dopamine receptor (Homo sapiens, UniProt P35462)
D(3) dopamine receptor, sequence (P35462 whole entry): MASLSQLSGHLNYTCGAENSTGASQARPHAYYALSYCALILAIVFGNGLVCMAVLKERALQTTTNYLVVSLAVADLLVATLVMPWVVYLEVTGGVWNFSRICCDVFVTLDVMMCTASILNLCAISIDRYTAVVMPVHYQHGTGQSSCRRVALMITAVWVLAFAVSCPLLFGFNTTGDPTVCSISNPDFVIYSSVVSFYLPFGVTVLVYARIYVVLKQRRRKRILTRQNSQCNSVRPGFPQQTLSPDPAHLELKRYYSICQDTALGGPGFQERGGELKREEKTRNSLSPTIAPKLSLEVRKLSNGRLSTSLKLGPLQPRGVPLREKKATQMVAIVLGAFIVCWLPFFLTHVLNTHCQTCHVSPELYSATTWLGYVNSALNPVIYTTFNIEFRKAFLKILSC

[13] = target: Vascular endothelial growth factor receptor 2 (Homo sapiens, UniProt P35968); assay type: functional
Vascular endothelial growth factor receptor 2, sequence (P35968 whole entry): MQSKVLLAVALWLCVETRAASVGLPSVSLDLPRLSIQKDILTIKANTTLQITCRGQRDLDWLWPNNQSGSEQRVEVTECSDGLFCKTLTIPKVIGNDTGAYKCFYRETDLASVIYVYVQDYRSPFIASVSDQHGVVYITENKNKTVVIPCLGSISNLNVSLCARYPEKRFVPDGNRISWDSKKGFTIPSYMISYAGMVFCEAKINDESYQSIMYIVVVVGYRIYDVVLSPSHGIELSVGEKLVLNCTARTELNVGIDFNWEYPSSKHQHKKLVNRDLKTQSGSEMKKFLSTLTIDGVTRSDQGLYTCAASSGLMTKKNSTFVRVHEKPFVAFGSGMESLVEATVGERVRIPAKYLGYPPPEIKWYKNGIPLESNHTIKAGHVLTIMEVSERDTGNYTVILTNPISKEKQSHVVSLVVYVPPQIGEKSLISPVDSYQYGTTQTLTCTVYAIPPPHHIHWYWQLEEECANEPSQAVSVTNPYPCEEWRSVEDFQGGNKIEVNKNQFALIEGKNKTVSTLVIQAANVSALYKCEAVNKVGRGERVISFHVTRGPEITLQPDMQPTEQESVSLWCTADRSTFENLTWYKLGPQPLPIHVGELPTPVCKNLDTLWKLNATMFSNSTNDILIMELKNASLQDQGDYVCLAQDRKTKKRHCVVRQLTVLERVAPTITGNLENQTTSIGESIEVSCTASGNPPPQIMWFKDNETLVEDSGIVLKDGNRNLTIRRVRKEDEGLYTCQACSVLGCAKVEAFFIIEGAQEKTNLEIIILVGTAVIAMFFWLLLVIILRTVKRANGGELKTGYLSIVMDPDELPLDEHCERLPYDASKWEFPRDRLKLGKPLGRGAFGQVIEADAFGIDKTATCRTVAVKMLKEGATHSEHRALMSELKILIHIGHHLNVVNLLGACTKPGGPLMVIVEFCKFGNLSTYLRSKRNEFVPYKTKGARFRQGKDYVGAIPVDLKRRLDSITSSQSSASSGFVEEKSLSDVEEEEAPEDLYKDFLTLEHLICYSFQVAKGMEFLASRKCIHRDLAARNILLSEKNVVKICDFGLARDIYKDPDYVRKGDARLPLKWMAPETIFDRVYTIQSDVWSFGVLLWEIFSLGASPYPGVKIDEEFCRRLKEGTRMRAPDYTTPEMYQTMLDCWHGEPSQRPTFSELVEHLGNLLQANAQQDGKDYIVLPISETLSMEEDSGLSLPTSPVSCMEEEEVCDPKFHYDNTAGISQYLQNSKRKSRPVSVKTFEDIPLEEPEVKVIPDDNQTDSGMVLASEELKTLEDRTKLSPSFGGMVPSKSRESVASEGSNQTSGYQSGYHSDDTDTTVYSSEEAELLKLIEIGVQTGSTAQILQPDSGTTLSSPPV
Note: assay procedure not described here.

Cannabinoid receptor 1, sequence (P21554 whole entry): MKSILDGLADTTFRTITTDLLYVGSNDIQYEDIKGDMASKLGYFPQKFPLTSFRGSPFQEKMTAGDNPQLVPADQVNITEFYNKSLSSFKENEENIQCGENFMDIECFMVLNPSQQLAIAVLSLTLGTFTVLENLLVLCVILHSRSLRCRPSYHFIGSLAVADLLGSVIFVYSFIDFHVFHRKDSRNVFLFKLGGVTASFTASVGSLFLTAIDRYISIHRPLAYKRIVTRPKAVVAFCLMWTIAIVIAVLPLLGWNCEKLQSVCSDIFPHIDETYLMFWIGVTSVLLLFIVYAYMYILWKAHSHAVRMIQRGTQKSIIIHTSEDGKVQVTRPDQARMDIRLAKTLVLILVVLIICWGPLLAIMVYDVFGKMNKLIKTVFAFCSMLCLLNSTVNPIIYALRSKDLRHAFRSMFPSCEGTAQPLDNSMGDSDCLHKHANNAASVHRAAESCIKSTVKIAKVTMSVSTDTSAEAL
Beta-2 adrenergic receptor, sequence (P07550 whole entry): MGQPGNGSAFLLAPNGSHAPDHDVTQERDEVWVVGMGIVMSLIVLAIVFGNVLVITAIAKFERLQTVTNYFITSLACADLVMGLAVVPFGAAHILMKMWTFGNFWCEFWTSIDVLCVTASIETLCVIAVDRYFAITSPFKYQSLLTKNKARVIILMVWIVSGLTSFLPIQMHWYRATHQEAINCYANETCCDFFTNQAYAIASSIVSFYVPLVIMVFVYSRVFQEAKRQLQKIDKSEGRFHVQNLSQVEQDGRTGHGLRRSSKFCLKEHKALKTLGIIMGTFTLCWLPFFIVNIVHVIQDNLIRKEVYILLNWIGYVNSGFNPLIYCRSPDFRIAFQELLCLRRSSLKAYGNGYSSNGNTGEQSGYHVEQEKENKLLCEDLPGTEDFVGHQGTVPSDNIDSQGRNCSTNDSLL

| Compound | AC50 [1] [µM] | AC50 [2] [µM] | AC50 [3] [µM] | AC50 [4] [µM] | AC50 [5] [µM] | AC50 [6] [µM] | AC50 [7] [µM] | AC50 [8] [µM] | AC50 [9] [µM] | AC50 [10] [µM] | AC50 [11] [µM] | AC50 [12] [µM] | AC50 [13] [µM] |
| --- | --- | --- | --- | --- | --- | --- | --- | --- | --- | --- | --- | --- | --- |
| CN1C(=O)CCS(=O)(=O)C1c1ccc(Cl)cc1 (centres undefined) [CHLORMEZANONE] | > 10 | > 10 | > 10 | – | – | – | – | – | – | – | – | – | – |
| CN(C)S(=O)(=O)c1ccc2c(c1)N(CCCN1CCC(CCO)CC1)c1ccccc1S2 [PIPOTIAZINE] | – | – | – | 0.313 | > 30 | > 30 | 3.4 | > 30 | 12 | 0.0201 | > 30 | 0.003 | > 30 |
| c1ccc([C@H]2CN3CCSC3=N2)cc1 [LEVAMISOLE] | > 30 | > 30 | > 30 | – | – | – | – | – | – | – | – | – | – |
| C=CCc1ccccc1OCC(O)CNC(C)C (centres undefined) [ALPRENOLOL] | – | – | > 30 | > 0.3 | > 0.3 | > 0.3 | > 0.3 | > 0.3 | > 0.3 | > 0.3 | > 0.3 | > 0.3 | > 0.3 |
| CCOC(=O)[C@H](CCc1ccccc1)N[C@@H](C)C(=O)N1[C@H](C(=O)O)C[C@H]2CCCC[C@@H]21 [TRANDOLAPRIL] | – | – | – | > 30 | > 30 | > 30 | > 30 | > 30 | > 30 | > 30 | > 30 | > 30 | > 30 |
| N[C@H](C(=O)O)[C@H](O)c1ccc(O)c(O)c1 [DROXIDOPA] | – | – | – | > 30 | > 30 | > 30 | > 30 | > 30 | > 30 | > 30 | > 30 | > 30 | > 30 |
| O=C(O[C@H]1C[C@H]2CC[C@@H](C1)[N+]21CCCC1)C(O)(c1ccccc1)c1ccccc1 [TROSPIUM] | > 30 | > 30 | > 30 | – | – | – | – | – | – | – | – | – | – |
| O=P1(NCCCl)OCCCN1CCCl (centres undefined) [IFOSFAMIDE] | > 30 | > 30 | > 30 | – | – | – | – | – | – | – | – | – | – |
| COC(c1ccccc1)(c1ccccc1)[C@H](Oc1nc(C)cc(C)n1)C(=O)O [AMBRISENTAN] | – | – | – | > 30 | > 30 | > 30 | > 30 | > 30 | > 30 | > 30 | > 30 | > 30 | > 30 |
| CCCSc1ccc2nc(NC(=O)OC)[nH]c2c1 [ALBENDAZOLE] | > 10 | > 30 | > 10 | – | – | – | – | – | – | – | – | – | – |
| CN(C)CCN1C(=O)c2ccccc2N(C)c2ccccc21 [DIBENZEPIN] | – | – | – | 9.47 | > 30 | > 30 | 28.8 | > 30 | 0.212 | 14.3 | 1.32 | 16.3 | > 30 |
| CC(=O)N[C@@H]1[C@@H](O)[C@H](O)[C@@H](CO)O[C@H]1O [N-ACETYLGLUCOSAMINE] | – | – | – | > 30 | > 30 | > 30 | > 30 | > 30 | > 30 | > 30 | > 30 | > 30 | > 30 |
| C[C@@H](O)[C@H]1C(=O)N2C(C(=O)O)=C(S[C@@H]3CN[C@H](C(=O)N(C)C)C3)[C@H](C)[C@H]12 [MEROPENEM] | > 10 | > 10 | > 300 | – | – | – | – | – | – | – | – | – | – |
| CC[C@H]1[C@@H](O)[C@@H]2[C@H](CC[C@]3(C)[C@@H]([C@H](C)CCC(=O)O)CC[C@@H]23)[C@@]2(C)CC[C@@H](O)C[C@@H]12 [OBETICHOLIC ACID] | – | > 30 | > 30 | > 30 | > 30 | > 30 | > 30 | > 30 | > 30 | > 30 | > 30 | > 30 | > 30 |
| CC(C)(C)NC[C@H](O)COc1ccccc1C1CCCC1 [PENBUTOLOL] | – | – | – | 0.966 | > 10 | > 30 | 11.9 | > 30 | 13.4 | 27.8 | 5.53 | 7.74 | > 30 |
| CC[N+]1(C)[C@@H]2CC(OC(=O)[C@H](CO)c3ccccc3)C[C@H]1[C@@H]1O[C@@H]12 (some centres undefined) [OXITROPIUM] | – | – | – | > 30 | > 30 | > 30 | > 30 | > 30 | > 30 | > 30 | > 30 | > 30 | > 30 |
| Nc1ccn([C@H]2CC[C@@H](CO)O2)c(=O)n1 [ZALCITABINE] | > 10 | > 10 | – | – | – | – | – | – | – | – | – | – | – |
| CN(C)[C@@H](c1cccc(O)c1)[C@H]1CCCC[C@H]1O [CIRAMADOL] | – | – | – | > 30 | > 30 | > 30 | 0.0059 | > 30 | > 30 | > 30 | 27.5 | > 30 | 9.31 |
| O=C(OCC(O)CO)c1ccccc1Nc1ccnc2cc(Cl)ccc12 (centres undefined) [GLAFENINE] | – | – | > 30 | > 30 | 8.3 | > 30 | 28.7 | > 30 | 17 | > 30 | > 30 | > 30 | 6.96 |
| CC(C)Nc1ncccn1 [ISAXONINE] | – | – | – | > 30 | > 30 | > 30 | > 30 | > 30 | > 30 | > 30 | > 30 | > 30 | > 30 |
| O=C(O)c1cc(O)ccc1O [GENTISIC ACID] | – | – | – | > 30 | > 30 | > 30 | > 30 | > 30 | > 30 | > 30 | > 30 | > 30 | > 30 |
| OCCN1C[C@H](O)[C@@H](O)[C@H](O)[C@H]1CO [MIGLITOL] | – | – | – | > 30 | > 30 | > 30 | > 30 | > 30 | > 30 | > 30 | > 30 | > 30 | > 30 |
| O=C(CCNNC(=O)c1ccncc1)NCc1ccccc1 [NIALAMIDE] | – | – | – | > 30 | > 30 | > 30 | > 30 | > 30 | > 30 | > 30 | > 30 | > 30 | > 30 |
